How the values were obtained:
USP8 = conditions: increasing concentrations; HEK293T lysate; FIG. 13D
Procedure: FIG. 13 D: Flag-USP8 constructs were transfected in HEK293T cells for 48 hours using standard protocols. After cell lysis, the whole cell lysate was incubated with HA-Ub-Vs at 1.5 μM during 12 hours. Then the mixture was separated on SDS-page gel and immunoblotted with anti Flag antibodies (to reveal USP8). The upper band corresponds to USP8 linked to HA-Ub-Vs while the lower band corresponds to free USP8. Immunoblot with anti-tubuline antibodies served as internal loading control.

[1] = test system: BT-549 triple negative breast cancer cells; test: Wounding assay, BT-549; type: cell-based; conditions: from 1 μM concentration; mitomycine 2 μg/ml; 24 hours
Procedure: In addition the migratory capacity of two additional triple negative breast cancer cells lines: the metastatic MDA-MB231 and BT-549 showing high migratory capacity was analyzed in a classical wound assay.
BT-549, MDA-MB231 cell lines were issued from the American Type Culture Collection (ATCC). For wounding assays, cells were seeded in 24-well microplates (Culture Insert 21, ref 250210, Ibidi®). […] Cell spreading was then visualized during 24 hours by videomicroscopy (1 acquisition each 30 min). A representative picture of 3 is presented at 0 and 12 hours of drug treatment out. In Graphs, curves represents the empty surface (devoid of cells) between the two cell layers (delimited by using Image J software).

chicken embryos = test: Toxicity in the chick embryo model; type: in vivo; conditions: each second day at 2 μM or 10 μM; FIG. 4B
Procedure: The number of dead embryo evaluates the toxicity after 10 days of the treatment as well as the research of abnormality on 22 checkpoints observed on surviving embryos at two concentrations of drugs (i.e. 2 μM and 10 μM). • Head: Size, Closure, Eyes, Ear, Face and Branchial are derivatives, Mobility; • Body: Size, Axis deformation, ventral and dorsal Closures, Caudal formation, Sexual area; • Limbs: Size, Axis morphology, Mobility, • Skin: Appendage formation, Attachment, Blood vessel; • Extra-Embryonic Structures: Vascularisation, Transparency, Attachment, Blood vessel Results

[2] = test system: EGFR and Met in HEK293T cells; test: Protein expression by immunoblot, HEK293T (Flag-USP8-S680A); type: cell-based, human; conditions: FIG. 11
Procedure: One representative experiment out of two is presented.
Cells were treated by either DMSO (0.5%) or increasing doses of the selected molecules from 1 μM to 10 μM over 6 to 24 hours as indicated. […] Tubulin was detected using anti α-tubulin primary antibody (in-house: the polyclonal Glu-tubulin antibody (L4) is available commercially from Abcys (Paris, France)). HRP-coupled anti-rabbit (#A6154) and anti-mouse (#A4416) secondary antibodies were purchased from Sigma. HRP activity was detected through HRP chemoluminescence detection reagent (Millipore, #WBLUF0100). […] Positive control was Epotoside at 50 μM or 100 μM, a known drug inducing cancerous cell death by apoptosis.

USP2-FL = USP2-FL (Homo sapiens, UniProt O75604); test: biochemical
p53 in HCT116 cells = test: Protein expression by immunoblot, HCT116; type: cell-based, human; conditions: dose dependent; FIG. 7B
Procedure: Actin or Tubulin (Tub) serve as loading controls. One representative experiment out of three is presented.
Cells were treated by either DMSO (0.5%) or increasing doses of the selected molecules from 1 μM to 10 μM over 6 to 24 hours as indicated. Cell lysates were analyzed by immunoblotting following standard procedure using primary antibodies from Cell Signaling: anti-total P53 (#9282), anti-phosphoP53 Kit (#9919), anti-cyclinD1 (#2926), anti-FAS (#3189), anti EGFR (#4267), anti-Phospho (tyr1068) EGFR (#2234), anti Met (#4560), anti-Akt (#9272), anti Phospho(Ser473)-Akt (#9271) or anti-Myc (Santa Cruz Technology #Sc-40). Tubulin was detected using anti α-tubulin primary antibody (in-house: the polyclonal Glu-tubulin antibody (L4) is available commercially from Abcys (Paris, France)). HRP-coupled anti-rabbit (#A6154) and anti-mouse (#A4416) secondary antibodies were purchased from Sigma. HRP activity was detected through HRP chemoluminescence detection reagent (Millipore, #WBLUF0100). Apoptotic cell death induction was observed through the observation of PARP cleavage using anti-PARP primary antibodies anti-PARP (46D11) (#9532). Positive control was Epotoside at 50 μM or 100 μM, a known drug inducing cancerous cell death by apoptosis.

LNCaP cells spheroids = test: Cell migration out of 3D spheroids; type: cell-based, human; conditions: 2 μM and 5 μM; 1 to 7 days; FIG. 3
Procedure: In vitro migration out of the spheroid was performed using a 96-well tissue culture plate (Cell Culture Microplate, 96 wells, Flat-BOTTOM, CellStar #655090). 100 μL (72 h hours old+24 h drug treatment spheroids) were placed in corresponding well of the new flat microplate, and daily observed in bright field with a Zeiss Axio Observer microscope. Each condition was made in six replicates. The migration area was measured with the tools of the AxioObserver software.
To this end, 3-days old spheroids are placed in a new flat-well microplate and daily observed in bright field.

HCC827 cells = test: Cytotoxicity assay (PrestoBlue cell viability), HCC827; type: cell-based; conditions: Homo sapiens, 48 hours treatment
Procedure: Messa, Messa DX5, HCT116, HEK-293, PC-3, LNCaP, HCC827 and H1975 cell lines are issued from the American Type Culture Collection (ATCC).
For cytotoxicity assays, cells were seeded in 96-well microplates 24 hours before the addition of increasing concentrations of each compound in the culture medium. Cell viability was analyzed 48 hours following addition of each compound through the monitoring of mitochondrial […] activity using PrestoBlue® Cell Viability Reagent (Invitrogen; #A-13261). Paclitaxel was used as a control which is cytotoxic on various cancerous cells although not on chemoresistant MESSA DX5 lineage.

USP8^CD = biological target: T1, USP8^CD (Homo sapiens, UniProt P40818); test: tri-Ub^K63 chains hydrolysis by USP8^CD (western blot); type: biochemical; conditions: FIG. 1D, at the indicated concentrations
T1 construct: the purified catalytic domain of USP8 (USP8^CD, in-house purified); made in house; host or cells: E. coli BL21 Gold
Procedure: (§1) The degradation of purified lysine 63-linked tree-Ubiquitin chains (triUb^K63) over a 90 minutes period of time was visualized by western blot analysis. […] Enzymatic assay was performed in a HEPES buffer (50 mM pH7.4, 150 mM NaCl, 0.5 mM EDTA, 2% glycerol, 0.2 mg/ml BSA, 5 mMDTT).

USP2^CD = biological target: T2, USP2^CD (Homo sapiens, UniProt O75604); test: tri-Ub^K63 chains hydrolysis by USP2^CD (western blot); type: biochemical; conditions: FIG. 1C, at the indicated concentrations
T2 construct: The purified catalytic domain of USP2 (USP2^CD, in-house purified); His; made in house; host or cells: E. coli BL21 Gold
Procedure: as §1

T2 sequence (O75604 267-599 limits assumed): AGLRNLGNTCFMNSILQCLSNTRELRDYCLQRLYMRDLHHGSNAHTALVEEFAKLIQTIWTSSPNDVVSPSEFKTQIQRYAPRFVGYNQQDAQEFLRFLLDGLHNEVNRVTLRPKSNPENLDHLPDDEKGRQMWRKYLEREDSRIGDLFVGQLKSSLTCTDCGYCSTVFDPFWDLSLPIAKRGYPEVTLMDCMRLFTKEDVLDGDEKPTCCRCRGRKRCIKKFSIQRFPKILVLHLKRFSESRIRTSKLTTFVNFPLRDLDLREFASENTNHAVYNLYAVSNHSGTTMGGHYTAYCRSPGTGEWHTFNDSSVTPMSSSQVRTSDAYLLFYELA
Chain of USP2-FL (O75604 whole entry): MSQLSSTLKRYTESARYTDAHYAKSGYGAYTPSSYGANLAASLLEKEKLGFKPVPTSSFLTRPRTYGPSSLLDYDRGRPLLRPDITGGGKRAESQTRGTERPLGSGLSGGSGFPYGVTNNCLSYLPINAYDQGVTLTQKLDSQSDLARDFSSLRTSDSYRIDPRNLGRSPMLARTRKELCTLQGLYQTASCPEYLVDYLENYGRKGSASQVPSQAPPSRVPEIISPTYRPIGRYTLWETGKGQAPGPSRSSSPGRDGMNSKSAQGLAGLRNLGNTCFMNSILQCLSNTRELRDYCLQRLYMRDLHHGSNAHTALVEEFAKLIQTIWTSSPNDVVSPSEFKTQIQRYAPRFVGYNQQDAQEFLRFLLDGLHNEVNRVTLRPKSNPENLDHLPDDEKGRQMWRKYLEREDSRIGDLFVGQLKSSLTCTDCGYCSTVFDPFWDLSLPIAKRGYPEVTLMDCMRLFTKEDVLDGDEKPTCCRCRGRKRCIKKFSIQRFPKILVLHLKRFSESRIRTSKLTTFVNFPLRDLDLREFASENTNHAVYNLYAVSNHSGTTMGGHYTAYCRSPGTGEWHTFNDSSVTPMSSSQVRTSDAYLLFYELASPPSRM
T1 sequence (P40818 777-1109 limits assumed): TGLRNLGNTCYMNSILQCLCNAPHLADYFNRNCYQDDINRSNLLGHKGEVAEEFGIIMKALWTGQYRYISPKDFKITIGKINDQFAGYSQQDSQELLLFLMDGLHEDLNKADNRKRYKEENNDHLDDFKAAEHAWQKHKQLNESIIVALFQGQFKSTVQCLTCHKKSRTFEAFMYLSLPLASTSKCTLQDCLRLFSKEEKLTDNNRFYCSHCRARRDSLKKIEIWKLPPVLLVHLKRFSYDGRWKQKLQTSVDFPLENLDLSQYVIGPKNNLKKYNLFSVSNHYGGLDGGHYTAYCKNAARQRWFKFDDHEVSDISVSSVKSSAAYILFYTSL

Row | Compound | HA-Ub-VS binding to USP8 in the whole cell lysate (USP8) | cell migration in wounding assay, BT-549 [1] | toxicity (death, macroscopic abnormalities) in chick embryo (chicken embryos) | EGFR levels induced by USP8-S680A, HEK293T ([2]; 6 h) | Met degradation, HEK293T ([2]; 6 hours, dose-dependent) | IC50 (USP2-FL) [nM] | p53 expression, HCT-116 (p53 in HCT116 cells) | prevention of cell migration out of the spheroids (LNCaP cells spheroids) | EC50 (HCC827 cells) [nM] | inhibition of tri-Ub^K63 chains hydrolysis by USP8^CD (USP8^CD) | inhibition of tri-Ub^K63 chains hydrolysis by USP2^CD (USP2^CD)
1 | CCCCS(=O)(=O)Cc1nc2c(nc1CS(=O)(=O)CCCC)C(=O)c1ccccc1C2=O [PCR6236] | decreased HA-Ub-VS binding to USP8 | prevents triple negative breast cancer cell migration | No significant toxicity | markedly reduced EGFR levels | induced Met degradation | 200 | restored high levels of p53 expression | strong capacity | 1800 |  | 
2 | CCCCS(=O)(=O)Cc1nc2c(o1)C(=O)c1ccccc1C2=O [PCR9301] |  |  |  |  |  |  |  |  |  | full inhibition | full inhibition
